# Results published in PMC4733634 (Journal of the American Chemical Society, 2015).
# Legend:
# [1] = tested on: S. aureus quality control strain 43300 (ATCC); test: microbe, parasite or virus in culture; format: cell-based; details: Staphylococcus aureus, ATCC43300|MRSA, 18 h, read-out: MIC wild-type S.aureus
# [2] = tested on: lab generated F98Y mutant strain; test: Minimum inhibitory concentration, micro-dilution broth assay, F98Y mutant strain; format: cell-based, S. aureus; details: Staphylococcus aureus, 18 h, read-out: MIC Sa(F98Y)
compound,measurement,setting,value
"COc1cc(Cc2cnc(N)nc2N)cc(OC)c1OC [TMP, trimethoprim]",MIC,[1],0.312 µg/mL
same,MIC,[2],10 µg/mL
